Test results reported in patent US7208309B2, “Inhibitor-resistant HCV NS3 protease” (priority 2002, dated 2007).
Like-named read-outs stand apart in the source and are kept apart here. Numbered stars: 1 amine (or outer) side, 2 acyl side, 3 side chain; on linkers, the order of the positions; unused ones are H or OH. Square brackets hold non-standard residues; d marks the D form. Peptide text beside a SMILES is read from it. * marks the point of attachment. Hyp(2-Ph-quinolin-4-yl) = O=C(O)[C@@H]1C[C@@H](Oc2cc(-c3ccccc3)nc3ccccc23)CN1; X1 = C=CC1C[C@]1(N[*:1])C(=O)[*:2]; Hyp = O=C(O)[C@@H]1C[C@@H](O)CN1; Chg = N[C@H](C(=O)O)C1CCCCC1; Tle = CC(C)(C)[C@H](N)C(=O)O; Nva = CCC[C@H](N)C(=O)O; Bn = c1ccc(C*)cc1

Legend:
[1] = system: bicistronic subgenomic HCV RNA replicon (S22.3 cell line); assay: HCV RNA replicon cell culture EC50 of the inhibitors used for selection; assay type: cell-based; settings: EC50 stated for the inhibitor used in resistance selection, replicon cells
Excerpt: The method described by Lohmann et al. (1999, Science 285:110) was used to mimic the replication of subgenomic HCV RNA in a system that is dependent on the function of HCV non-structural proteins and enzymes. This HCV RNA replicon system incorporates two cistrons: one encoding the HCV non-structural region and the second encoding a selectable neomycin resistant marker (i.e. gene encoding neomycin phosphotransferase). As one of skill in the art will appreciate, the second cistron may encode any marker suitable for selection purposes. Cell lines harboring such bicistronic, subgenomic HCV RNA, such as the S22.3 cell line, are described by Kukolj and Pause (see WO 02/052015, the contents of which are hereby incorporated by reference). These cell lines are useful in evaluating the efficacy and potency of potential anti-HCV therapeutics that inhibit one or more of the HCV non-structural proteins.
As shown, Huh-7 cells (8×10^6 cells) were transfected with the bicistronic subgenomic HCV RNA using transfection methods well-established in the art. Transfected Huh-7 cells were selected by growth in neomycin-containing media (0.5 mg/ml neomycin). Specifically, transfected cells replicate the RNA that produces neomycin phosphotransferase thereby rendering the cells resistant to the cytotoxic effect of neomycin. Mutated HCV replicons as described in WO 02/052015 can also be used in accordance with the present method to increase RNA replication and efficiency of replicon establishment.
inhibitor A=cyclopropa[e]pyrrolo [1,2-a][1,4]diazacyclopentadecine-14a(5H)-carboxylic acid, 6-[[(cyclopentyloxy) carbonyl]amino]-1,2,3,6,7,8,9,10,11,13a, 14,15,16,16a-tetradecahydro-2-[[7-methoxy-2-[2-[(1-methylethyl)amino]-4-thiazolyl]-4-quinolinyl]oxy]-5,16-dioxo-, (2R,6S, 12Z, 13aS, 14aR, 16aS), which is described as compound #822 in WO 00/59929, the contents of which is hereby incorporated by reference. The colonies were grown in the presence of increasing concentrations of this inhibitor (EC50 of 2 nM) ranging from 2 nM to 2000 nM.

NS3-NS4A protein D168V = target: T1, NS3-NS4A protein D168V (Hepatitis C virus genotype 1b, UniProt Q9WMX2, D1194V); assay: In vitro enzyme assay, Ki, full length NS3/NS4A protein D168V; assay type: biochemical, HCV genotype 1b
T1 construct: TEV protease cleavage site (N); made in house; host or cells: E. coli (pET11a)
Excerpt: (§1) DNA encoding the NS3-NS4A coding region of HCV genotype 1b, that includes a 28-residue N-terminal sequence containing a hexahistidine tag and a TEV protease cleavage (Pause, A. et al. (2003) J. Biol. Chem. 278: 20374–20380) was amplified by PCR and then subcloned into the pET11a bacterial expression vector. Amino acid substitutions A156T and D168V were introduced into the NS3-NS4A coding region using standard site-directed mutagenesis procedures.
(§2) The NS3 protease domain (harboring A156T or D168V or R155Q mutations) were expressed in E. coli and purified as previously described (LaPlante, S. R. et al (1999) J. Biol. Chem. 274: 18618–18624). The NS3-NS4A proteins with either A156T or D168V mutation were also expressed in E. coli and the cell paste was resuspended in 5 mL of lysis buffer (50 mM sodium phosphate, pH 7.5, 20% glycerol, 1 mM EDTA, 0.5% Triton X-100, 0.5 M NaCl) per gram of cells, treated with DNase I, then clarified by a 30-min centrifugation at 150,000×g; the supernatant was diluted 2-fold in 50 mM sodium phosphate, pH 7.5, 0.5 M NaCl and imidazole was added to a final concentration of 25 mM. The NS3-NS4A complex solution was purified by successive steps on a Hi-Trap Ni^+2-chelating column, and poly(U)-Sepharose affinity column previously equilibrated in 50 mM sodium phosphate, pH 7.0, 10% glycerol, 0.2 M NaCl, 0.05% n-dodecyl-β-D-maltoside, 10 mM β-mercaptoethanol. The enzyme was eluted in the same buffer containing 2 M NaCl. The isolated enzymes were stored at −80° C.
(§3) Ki determination—The inhibition constant (Ki) was determined using the depsipeptide fluorogenic substrate anthranilyl-DDIVPAbu[C(O)—O]AMY(3-NO2)TW-OH. The cleavage reaction was continuously monitored at 23° C. on a BMG POLARstar® Galaxy fluorometer, equipped with excitation and emission filters of 320 and 405 nm respectively. […] IC50's were obtained from a non-linear curve fit using the Hill model applied to the % inhibition-concentration data and calculated through the use of SAS (Statistical Software System, SAS Institute Inc., Cary, N.C.).

NS3-NS4A protein A156T = target: T2, NS3-NS4A protein A156T (Hepatitis C virus genotype 1b, UniProt Q9WMX2, A1182T); assay: In vitro enzyme assay, Ki, full length NS3/NS4A protein A156T; assay type: biochemical, HCV genotype 1b
T2 construct: TEV protease cleavage site (N); made in house; host or cells: E. coli (pET11a)
Excerpt: as §1
(§4) The NS3 protease domain (harboring A156T or D168V or R155Q mutations) were expressed in E. coli and purified as previously described (LaPlante, S. R. et al (1999) J. Biol. Chem. 274: 18618–18624). […]
as §3

NS3-NS4A protein WT = target: T3, NS3-NS4A protein WT (Hepatitis C virus genotype 1b, UniProt Q9WMX2); assay: In vitro enzyme assay, Ki, full length NS3/NS4A protein WT; assay type: biochemical, HCV genotype 1b
T3 construct: TEV protease cleavage site (N); made in house; host or cells: E. coli (pET11a)
Excerpt: as §1, §2, §3

[2] = system: NS3 D168V mutant HCV subgenomic replicon in Huh-7 cells; assay: Inhibitor EC50 in NS3 D168V mutant replicon cell line; assay type: cell-based; settings: Hepatitis C virus, Huh-7, read-out: EC50, D168V
Excerpt: (§5) Specific isogenic HCV subgenomic replicon cDNAs individually containing only one of the inhibitor-resistant mutations, i.e. (in this example: A156T; or A156V; or D168V; or D168G) were cloned and corresponding in vitro transcribed RNA of these modified bi-cistronic replicons were generated. The mutant-encoding RNAs were used to construct mutant-containing replicon cell lines in naïve Huh-7 cells as described previously for other HCV replicons. […] They were also used to determine the level of inhibition of the mutant inhibitor-resistant cell lines in the presence of an unrelated HCV NS5B polymerase inhibitor or alpha-interferon. Using the assay described in WO 03/010141 (Example 48) the EC50 of each inhibitor was determined using the mutant cell lines.

[3] = target: T4, NS3 protease (1-180) WT-NS4A peptide complex (Hepatitis C virus genotype 1b, UniProt Q9WMX2); assay: In vitro enzyme assay, Ki, NS3 protease-NS4A peptide complex WT; assay type: biochemical, HCV
T4 construct: the NS3 protease (1–180) coding region for wild-type; made in house; host or cells: bacterial expression vector (E. coli)
Excerpt: (§6) Alternatively, the NS3 protease (1–180) coding region for wild-type with the sequence ASKKKK at the C-terminus was cloned into a bacterial expression vector and amino acid substitutions A156T, D168V and R155Q were introduced as described above.
as §4, §3

[4] = target: T5, NS3 protease (1-180) D168V-NS4A peptide complex (Hepatitis C virus genotype 1b, UniProt Q9WMX2, D1194V); assay: In vitro enzyme assay, Ki, NS3 protease-NS4A peptide complex D168V; assay type: biochemical, HCV; settings: calculated Ki from IC50
T5 construct: the NS3 protease (1–180) coding region for wild-type; made in house; host or cells: E. coli
Excerpt: as §6, §4, §3

[5] = system: NS3 D168G mutant HCV subgenomic replicon in Huh-7 cells; assay: Inhibitor EC50 in NS3 D168G mutant replicon cell line; assay type: cell-based; settings: Hepatitis C virus, Huh-7, read-out: EC50, D168G
Excerpt: as §5

[6] = system: NS3 A156V mutant HCV subgenomic replicon in Huh-7 cells; assay: Inhibitor EC50 in NS3 A156V mutant replicon cell line; assay type: cell-based; settings: Hepatitis C virus, Huh-7, read-out: EC50, A156V
Excerpt: as §5

[7] = system: WT HCV subgenomic replicon in Huh-7 cells; assay: Inhibitor EC50 in WT replicon cell line; assay type: cell-based; settings: Hepatitis C virus
[8] = system: NS3 A156T mutant HCV subgenomic replicon in Huh-7 cells; assay: Inhibitor EC50 in NS3 A156T mutant replicon cell line; assay type: cell-based; settings: Hepatitis C virus, Huh-7, read-out: EC50, A156T
Excerpt: as §5

[9] = target: T6, NS3 protease (1-180) A156T-NS4A peptide complex (Hepatitis C virus genotype 1b, UniProt Q9WMX2, A1182T); assay: In vitro enzyme assay, Ki, NS3 protease-NS4A peptide complex A156T; assay type: biochemical, HCV; settings: calculated Ki from IC50
T6 construct: the NS3 protease (1–180) coding region for wild-type; made in house; host or cells: E. coli
Excerpt: as §6, §4, §3

[10] = target: T7, NS3 protease (1-180) R155Q-NS4A peptide complex (Hepatitis C virus genotype 1b, UniProt Q9WMX2, R1181Q); assay: In vitro enzyme assay, Ki, NS3 protease-NS4A peptide complex R155Q; assay type: biochemical, HCV; settings: calculated Ki from IC50
T7 construct: the NS3 protease (1–180) coding region for wild-type; made in house; host or cells: E. coli
Excerpt: as §6, §4, §3

COc1ccc2c(O[C@@H]3C[C@H]4C(=O)N[C@]5(C(=O)O)C[C@H]5/C=C\CCCCC[C@H](NC(=O)OC(C)(C)C)C(=O)N4C3)cc(-c3csc(NC(C)=O)n3)nc2c1 [inhibitor C, Cyclopropa[e]pyrrolo[1,2-a][1,4]-diazacyclopentadecine-14a(5H)-carboxylic acid, 2-[[2-[2-(acetylamino)-4-thiazolyl]-7-methoxy-4-quinolinyl]oxy]-6-[[(1,1-dimethylethoxy)carbonyl]amino]-1,2,3,6,7,8,9,10,11,13a,14,15,16,16a-tetradecahydro-5,16-dioxo-, (2R,6S, 12Z, 13aS, 14aR, 16aS)-]
EC50 [1]: 5 nM

C=CC1C[C@]1(NC(=O)[C@@H]1C[C@@H](Oc2cc(-c3ccccc3)nc3ccccc23)CN1C(=O)[C@@H](NC(=O)[C@@H](NC(=O)[C@@H](CCC(=O)O)NC(=O)[C@H](CC(=O)O)NC(C)=O)C1CCCCC1)C(C)(C)C)C(=O)O (some centres unmarked) [Compound F] (Ac-D[dE][Chg][Tle][Hyp(2-Ph-quinolin-4-yl)][X1]-OH)
Ki (NS3-NS4A protein D168V; read-out: Ki, D168V): 12 nM
Ki (NS3-NS4A protein A156T; read-out: Ki, A156T): 29 nM
Ki (NS3-NS4A protein WT): 0.047 nM

C=C[C@@H]1C[C@]1(NC(=O)[C@@H]1C[C@@H](Oc2cc(-c3csc(NC(C)=O)n3)nc3cc(OC)ccc23)CN1C(=O)[C@@H](NC(=O)OC1CCCC1)C(C)(C)C)C(=O)O [inhibitor B, cyclopropane carboxylic acid, N-[(cyclopentyloxy)carbonyl]-3-methyl-L-valyl-(4R)-4-[[2-[2-(acetylamino)-4-thiazolyl]-7-methoxy-4-quinolinyl]oxy]-L-prolyl-1-amino-2-ethenyl-, (1R,2S)-]
EC50 [1]: 40 nM

COc1ccc2c(O[C@@H]3C[C@H]4C(=O)N[C@]5(C(=O)O)C[C@H]5/C=C\CCCCC[C@H](NC(=O)OC5CCCC5)C(=O)N4C3)cc(-c3csc(NC(C)C)n3)nc2c1 [inhibitor A, cyclopropa[e]pyrrolo [1,2-a][1,4]diazacyclopentadecine-14a(5H)-carboxylic acid, 6-[[(cyclopentyloxy)carbonyl]amino]-1,2,3,6,7,8,9,10,11,13a, 14,15,16,16a-tetradecahydro-2-[[7-methoxy-2-[2-[(1-methylethyl)amino]-4-thiazolyl]-4-quinolinyl]oxy]-5,16-dioxo-, (2R,6S, 12Z, 13aS, 14aR, 16aS)]
EC50 [2]: 735 nM
Ki [3]: 5.6 nM
Ki (NS3-NS4A protein D168V; calculated Ki from IC50, read-out: Ki, D168V (calculated Ki from IC50)): 520 nM
EC50 ([1]; Hepatitis C virus): 2 nM
Ki (NS3-NS4A protein A156T; calculated Ki from IC50, read-out: Ki, A156T (calculated Ki from IC50)): 870 nM
Ki (NS3-NS4A protein WT): 1.6 nM
Ki [4]: 970 nM
EC50 [5]: 23 nM
EC50 [6]: 324 nM
EC50 [7]: 0.9 nM
EC50 [8]: 547 nM
Ki [9]: 800 nM
Ki [10]: 220 nM

CCC[C@H](NC(=O)[C@@H]1C[C@@H](OCc2ccccc2)CN1C(=O)[C@@H](NC(=O)[C@@H](NC(=O)[C@@H](CCC(=O)O)NC(=O)[C@H](CC(=O)O)NC(C)=O)[C@@H](C)CC)C(C)C)C(=O)O [Compound E] (Ac-D[dE]IV[Hyp](Bn)[Nva]-OH)
Ki (NS3-NS4A protein D168V; read-out: Ki, D168V): 8100 nM
Ki (NS3-NS4A protein WT): 1600 nM
